# Target: T1, Angiotensin II receptor (Rattus norvegicus, UniProt P29089+P25095+P35351)
# T1 sequence (P29089 whole entry): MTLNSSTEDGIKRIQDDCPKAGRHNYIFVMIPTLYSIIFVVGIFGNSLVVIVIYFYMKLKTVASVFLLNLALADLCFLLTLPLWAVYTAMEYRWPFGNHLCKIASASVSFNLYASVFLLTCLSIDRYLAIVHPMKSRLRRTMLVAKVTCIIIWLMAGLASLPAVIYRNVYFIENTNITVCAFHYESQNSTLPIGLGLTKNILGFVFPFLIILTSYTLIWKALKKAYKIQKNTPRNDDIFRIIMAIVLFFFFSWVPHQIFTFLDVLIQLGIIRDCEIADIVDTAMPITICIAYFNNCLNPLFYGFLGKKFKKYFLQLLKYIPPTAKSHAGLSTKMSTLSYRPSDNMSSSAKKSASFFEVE
# T1 sequence (P25095 whole entry): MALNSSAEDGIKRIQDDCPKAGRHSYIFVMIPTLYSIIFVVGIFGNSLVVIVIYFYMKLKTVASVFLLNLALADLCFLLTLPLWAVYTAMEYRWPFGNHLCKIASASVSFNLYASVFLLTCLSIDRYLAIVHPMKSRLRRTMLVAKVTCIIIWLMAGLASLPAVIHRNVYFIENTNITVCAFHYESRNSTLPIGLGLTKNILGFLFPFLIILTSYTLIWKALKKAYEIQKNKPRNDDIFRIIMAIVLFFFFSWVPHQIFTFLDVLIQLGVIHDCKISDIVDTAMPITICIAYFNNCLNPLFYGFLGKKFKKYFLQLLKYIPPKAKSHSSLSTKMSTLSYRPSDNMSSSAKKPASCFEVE
# T1 sequence (P35351 whole entry): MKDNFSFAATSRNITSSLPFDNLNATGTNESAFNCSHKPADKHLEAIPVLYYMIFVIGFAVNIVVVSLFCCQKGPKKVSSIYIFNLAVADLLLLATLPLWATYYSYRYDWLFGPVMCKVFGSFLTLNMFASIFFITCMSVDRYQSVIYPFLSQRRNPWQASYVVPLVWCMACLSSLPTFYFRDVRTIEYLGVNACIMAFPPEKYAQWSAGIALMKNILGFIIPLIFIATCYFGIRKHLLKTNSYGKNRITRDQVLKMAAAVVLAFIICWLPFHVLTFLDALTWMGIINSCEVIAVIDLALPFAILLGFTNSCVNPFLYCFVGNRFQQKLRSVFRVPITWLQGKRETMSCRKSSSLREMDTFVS
# Assay: Binding affinity against Angiotensin II receptor, from rat adrenal gland
# Type: tissue-based
row,Structure (SMILES),IC50 [µM]
1,Cc1cc(C)cc(Cn2cnc3c2C[C@@H](C(=O)O)N(C(=O)C(c2ccccc2)c2ccccc2)C3)c1,0.14
2,COc1ccc(Cn2cnc3c2C[C@@H](C(=O)O)N(C(=O)C(c2ccc(F)cc2)c2ccc(F)cc2)C3)cc1C,2.3
3,CC(=O)Nc1ccc(Cn2cnc3c2C[C@@H](C(=O)O)N(C(=O)C(c2ccccc2)c2ccccc2)C3)cc1,0.35
4,COc1ccc(Cn2cnc3c2C[C@@H](C(=O)O)N(C(=O)C(c2ccccc2)c2ccccc2)C3)cc1OC,0.098
5,Cc1cc(Cn2cnc3c2CC(CO)N(C(=O)C(c2ccccc2)c2ccccc2)C3)ccc1N(C)C (stereo not given),0.2
6,O=C(O)C1Cc2c(ncn2Cc2ccccc2)CN1S(=O)(=O)Cc1ccccc1 (stereo not given),19
7,COc1ccc(Cn2cnc3c2C[C@@H](C(=O)O)N(C(=O)C(c2ccccc2)c2ccccc2)C3)cc1[N+](=O)[O-],0.051
8,CN(C(=O)N1Cc2ncn(Cc3ccccc3)c2CC1C(=O)O)c1ccccc1 (stereo in doubt; 3a),1.1
9,O=C(O)C1Cc2c(ncn2Cc2ccccc2)CN1C(=O)c1cccc2ccccc12 (stereo not given),9.8
10,O=C(O)C1Cc2c(ncn2Cc2ccccc2)CN1C(=O)C(c1ccc(F)cc1)c1ccc(F)cc1 (stereo not given),2.1
11,COc1ccc(Cn2cnc3c2C[C@@H](C(=O)O)N(C(=O)C2(c4ccccc4)CCCCC2)C3)cc1C,0.11
12,O=C(O)[C@@H]1Cc2c(ncn2C(c2ccccc2)c2ccccc2)CN1C(=O)C(c1ccccc1)c1ccccc1,0.11
13,CC(c1ccccc1)n1cnc2c1C[C@@H](C(=O)O)N(C(=O)C(c1ccccc1)c1ccccc1)C2 (stereo not given in full),1.1
14,O=C(O)C1Cc2c(ncn2Cc2ccccc2)CN1C(=O)CC(c1ccccc1)c1ccccc1 (stereo not given),1.2
15,CC(=O)Nc1ccc(Cn2cnc3c2C[C@@H](C(=O)O)N(C(=O)C(c2ccccc2)c2ccccc2)C3)cc1C,0.089
16,Cc1cc(Cn2cnc3c2C[C@H](C(=O)O)N(C(=O)C(c2ccccc2)c2ccccc2)C3)ccc1N(C)C.O,0.097
17,COC(=O)C1Cc2c(ncn2Cc2ccccc2)CN1C(=O)C(c1ccccc1)c1ccccc1 (stereo not given),8.8
18,COc1ccc(Cn2cnc3c2C[C@@H](C(=O)O)N(C(=O)C(c2ccc(C)cc2)c2ccc(C)cc2)C3)cc1C,0.51
19,CCc1cc(Cn2cnc3c2C[C@@H](C(=O)O)N(C(=O)C(c2ccccc2)c2ccccc2)C3)ccc1OC,0.05
20,Nc1ccc(Cn2cnc3c2C[C@@H](C(=O)O)N(C(=O)C(c2ccccc2)c2ccccc2)C3)cc1,0.15
21,O=C(O)C1Cc2ncn(Cc3ccccc3)c2CN1C(=O)/C=C/c1ccccc1 (stereo not given),29
22,CN(C)c1ccc(Cn2cnc3c2C[C@@H](C(=O)O)N(C(=O)C(c2ccccc2)c2ccccc2)C3)cc1,0.085
23,COc1ccc(Cn2cnc3c2C[C@@H](C(=O)O)N(C(=O)C(C)(c2ccccc2)c2ccccc2)C3)cc1C,9.5
24,O=C(O)C1Cc2c(ncn2Cc2ccccc2)CN1C(=O)OCc1ccccc1 (stereo in doubt; 7a),4.2

row,Structure (SMILES),IC50 [µM]
1,Cc1ccc(C(C(=O)N2Cc3ncn(Cc4ccccc4)c3CC2C(=O)O)c2ccc(C)cc2)cc1 (stereo not given),1.3
2,COc1ccc(C(C(=O)N2Cc3ncn(Cc4ccc(OC)c(C)c4)c3C[C@H]2C(=O)O)c2ccc(OC)cc2)cc1,2
3,O=C(O)C1Cc2c(ncn2Cc2ccccc2)CN1C(=O)Cc1ccccc1 (stereo in doubt; 14),1.4
4,O=C(O)C1Cc2c(ncn2Cc2ccccc2)CN1C(=O)NCc1ccccc1 (stereo not given),11
5,O=C(O)C1Cc2c(ncn2Cc2ccccc2)CN1C(=O)C(c1ccc([N+](=O)[O-])cc1)c1ccc([N+](=O)[O-])cc1 (stereo not given),13
6,COc1ccc(Cn2cnc3c2C[C@@H](C(=O)O)N(C(=O)C(c2ccccc2)c2ccccc2)C3)cc1,0.29
7,O=C(O)[C@@H]1Cc2c(ncn2Cc2cccc(Br)c2)CN1C(=O)C(c1ccccc1)c1ccccc1,0.65
8,O=C(O)[C@@H]1Cc2c(ncn2Cc2cccc(Cl)c2)CN1C(=O)C(c1ccccc1)c1ccccc1,1.2
9,O=C(C(c1ccccc1)c1ccccc1)N1CCc2c(ncn2Cc2ccccc2)C1,6.1
10,O=C(O)[C@@H]1Cc2c(ncn2Cc2ccc3ccccc3c2)CN1C(=O)C(c1ccccc1)c1ccccc1,0.27
11,COc1ccc(C)cc1Cn1cnc2c1C[C@@H](C(=O)O)N(C(=O)C(c1ccccc1)c1ccccc1)C2,0.72
12,O=C(O)[C@@H]1Cc2c(ncn2Cc2ccc([N+](=O)[O-])cc2)CN1C(=O)C(c1ccccc1)c1ccccc1,0.61
13,COc1ccc(Cn2cnc3c2C[C@@H](C(=O)O)N(C(=O)CC2CCCCC2)C3)cc1C,2
14,COc1ccc(C(C(=O)N2Cc3ncn(Cc4ccccc4)c3CC2C(=O)O)c2ccc(OC)cc2)cc1 (stereo not given),0.61
15,Cc1cc(Cn2cnc3c2C[C@@H](C(=O)O)N(C(=O)C(c2ccccc2)c2ccccc2)C3)ccc1[N+](=O)[O-],0.29
16,COc1ccc(Cn2cnc3c2C[C@@H](C(=O)O)N(C(=O)C(c2ccccc2)C2CCCC2)C3)cc1C (stereo not given in full),0.067
17,COc1ccc(Cn2cnc3c2C[C@@H](C(=O)O)N(C(=O)CC24CC5CC(CC(C5)C2)C4)C3)cc1C,28
18,COc1ccc(Cn2cnc3c2C[C@@H](C(=O)O)N(C(=O)C(c2ccc(Cl)cc2)c2ccc(Cl)cc2)C3)cc1C,2.4
19,O=C(O)C1Cc2c(ncn2Cc2ccccc2)CN1C(=O)C(c1ccccc1)C1CCCC1 (stereo not given),0.071
20,O=C(C(c1ccccc1)C1CCCC1)N1Cc2ncn(Cc3ccccc3)c2CC1CO (stereo not given),6.7
21,O=C(O)[C@H]1Cc2c(ncn2Cc2ccccc2)CN1C(=O)C(c1ccccc1)c1ccccc1,1.2
22,O=C(O)[C@@H]1Cc2c(ncn2Cc2cccnc2)CN1C(=O)C(c1ccccc1)c1ccccc1,0.12
23,Cc1cc(Cn2cnc3c2CC(CO)N(C(=O)C(c2ccccc2)c2ccccc2)C3)ccc1[N+](=O)[O-] (stereo not given),2
24,O=C(Cc1ccccc1)N1Cc2ncn(Cc3ccccc3)c2CC1CO (stereo not given),5.2

row,Structure (SMILES),IC50 [µM]
1,O=C(O)C1Cc2c(ncn2Cc2ccccc2)CN1C(=O)OCc1ccccc1 (stereo in doubt; 7),14
2,COc1ccc(Cn2cnc3c2CCN(C(=O)C(c2ccccc2)c2ccccc2)C3)cc1C,4.4
3,O=C(C(c1ccccc1)c1ccccc1)N1Cc2ncn(Cc3ccccc3)c2CC1CO (stereo not given),2.1
4,COC(=O)C1Cc2c(ncn2Cc2ccc(N(C)C)c(C)c2)CN1C(=O)C(c1ccccc1)c1ccccc1 (stereo not given),0.35
5,O=C(O)C1Cc2c(ncn2Cc2ccccc2)CN1C(=O)CCc1ccccc1 (stereo not given),13
6,O=C(O)C1Cc2c(ncn2Cc2ccccc2)CN1C(=O)Nc1ccccc1 (stereo not given),2.1
7,CN(C(=O)N1Cc2ncn(Cc3ccccc3)c2CC1C(=O)O)c1ccccc1 (stereo in doubt; 3),1.2
8,O.O=C(O)[C@@H]1Cc2c(ncn2CC2CCCCC2)CN1C(=O)C(c1ccccc1)c1ccccc1,0.34
9,O=C(O)C1Cc2c(ncn2Cc2ccccc2)CN1C(=O)C(c1ccccc1)c1ccccc1 (stereo in doubt; 18),1
10,Nc1ccc(C(C(=O)N2Cc3ncn(Cc4ccccc4)c3CC2C(=O)O)c2ccc(N)cc2)cc1 (stereo not given),8.4
11,Cc1ccc(Cn2cnc3c2C[C@@H](C(=O)O)N(C(=O)C(c2ccccc2)c2ccccc2)C3)cc1C,0.3
12,COc1ccc(Cn2cnc3c2C[C@@H](C(=O)O)N(C(=O)/C=C\c2ccccc2)C3)cc1C,2.2
13,COc1ccc(Cn2cnc3c2C[C@@H](C(=O)O)N(C(=O)C(c2ccccc2)C2CCCCC2)C3)cc1C (stereo not given in full),0.085
14,O=C(C(=O)N1Cc2ncn(Cc3ccccc3)c2CC1C(=O)O)c1ccccc1 (stereo not given),2.4
15,CCN(CC)c1ccc(Cn2cnc3c2C[C@@H](C(=O)O)N(C(=O)C(c2ccccc2)c2ccccc2)C3)cc1,0.29
16,CN(C(=O)N1Cc2ncn(Cc3ccccc3)c2CC1CO)c1ccccc1 (stereo not given),1.6
17,COc1ccc(Cn2cnc3c2C[C@@H](C(=O)O)N(C(=O)C(c2ccccc2)c2ccccc2)C3)cc1F,0.26
18,COc1ccc(Cn2cnc3c2C[C@@H](C(=O)O)N(C(=O)C(c2ccc([N+](=O)[O-])cc2)c2ccc([N+](=O)[O-])cc2)C3)cc1C,13
19,COc1ccc(Cn2cnc3c2CC(CO)N(C(=O)N(C)c2ccccc2)C3)cc1C (stereo not given),0.52
20,O=C(O)[C@@H]1Cc2c(ncn2Cc2cccc(C(F)(F)F)c2)CN1C(=O)C(c1ccccc1)c1ccccc1,0.46
21,O=C(O)C1Cc2c(ncn2Cc2ccccc2)CN1C(=O)COc1ccccc1 (stereo not given),4
22,CC(C)NC(=O)N1Cc2ncn(Cc3ccccc3)c2CC1C(=O)O (stereo not given),21

# From ChEMBL document CHEMBL1125793 (J Med Chem, 1991)
